Data as given in PubChem BioAssay AID179 (DTP/NCI, 2004).
Activity calls are given as the source filed them.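 The calls were made as follows: active = compounds giving half or more protection of infected cells from virus-caused growth loss, again on retest; inactive = the rest.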

System: CEM cells HIV-1 protection, formazan growth assay
Assay: NCI AIDS Antiviral Assay
Conditions: for IC50: measured here: growth of uninfected CEM cells
Outline: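 Human CEM cells, uninfected and HIV-1-infected, received five drug concentrations, and growth was read by soluble formazan assay. Compounds giving at least 50% protection were retested; reproducible 100% protection defined confirmed active.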

| Compound | EC50 [µM] | IC50 [µM] | outcome |
| --- | --- | --- | --- |
| CCO[C@@H]1C2C=CC(C2)[C@H]1[N+](=O)[O-] (stereo not given in full) | > 141 | > 141 |  |
| CCOP(=O)(OCC)/C(C#N)=C/c1cccc(Br)c1 |  |  | inactive |
| Cc1cc(S(=O)(=O)Nc2nnc3ccccn23)c(S)cc1Cl | 102 | 380 |  |
| C/C(=N/NC(N)=S)C(CN(C)C)C(C1=C(O)c2ccccc2OC1)c1ccccc1 (stereo not given) | > 141 | 107 |  |
| CN1C2CC(=O)CC1[C@H](O)[C@@H]2O | > 200 | > 200 |  |
| CCOC(=O)CSc1[nH]c(NC(=S)Nc2ccccc2)c(C(N)=O)c1C(N)=O | > 200 | 97.7 |  |
| C=C1CC(c2ccc(S(=O)(=O)N3CCOCC3)cc2)OC1=O (stereo not given) | > 200 | 2.82 |  |
| CCOC(=O)c1sc2nc(SC)nc3c2c1NCN3C | > 200 | > 200 |  |
| c1ccc(N=C2SC(c3ccccc3)(c3ccccc3)c3ccccc32)cc1 | > 200 | > 200 |  |
| CC1=C(c2ccccc2)C(c2ccccc2)=C(c2ccccc2)C2(c3ccccc3)C(=O)C(C)CN12 (stereo not given) | > 5.75 | > 5.75 |  |
| O=S(=O)(O)c1cc(N=Cc2cc(S(=O)(=O)O)c3cccnc3c2O)ccc1/C=C\c1ccc(N=Cc2cc(S(=O)(=O)O)c3cccnc3c2O)cc1S(=O)(=O)O | > 38.9 | > 38.9 |  |
| O=C(ON=c1c2ccccc2ccc2ccccc12)c1ccccc1 | > 200 | 33.9 |  |
| [N-]=[N+]=NC1C[C@H](n2cc(/C=C/Br)c(=O)[nH]c2=O)C[C@@H]1CO (stereo not given in full) | > 363 | 355 |  |
| CCCCCC(=O)NC(=S)Nc1nn[nH]n1 | > 200 | > 200 |  |
| CC(=O)OCC1OC(n2c(=S)[nH]c(-c3ccccc3)c(C#N)c2=O)C(OC(C)=O)C(OC(C)=O)C1OC(C)=O (stereo not given) | > 200 | 170 |  |
| COc1ccc2c(c1OC)C(=O)N/C2=C\c1c(CCN(C)C)cc2c(c1OC)OCO2 | > 200 | > 100 |  |
| O=C1N[C@H]2CCCC[C@@H]2C(=O)N1OS(=O)(=O)c1ccccc1 | > 200 | > 200 |  |
| Cc1ccc(NC(Nc2ccc(C)cc2C)=C(C(Cl)=C(Cl)Cl)[N+](=O)[O-])c(C)c1 | > 200 | 7.94 |  |
| CCOC(=O)c1nc2c3c(ncn2n1)Oc1c(c(-c2ccccc2)nn1-c1ccccc1)C3c1ccc(Cl)cc1 (stereo not given) | > 200 | > 200 |  |
| O=C(NCCCCN(CCCNC(=O)C(F)(F)F)Cc1ccc2ccccc2c1)C(F)(F)F | > 200 | 34.7 |  |
| Cn1c2c(c3ccccc31)C1C(=O)N(c3ccccc3)C(=O)C1CC2 (stereo not given) | > 57.5 | > 57.5 |  |
| [N-]=[N+]=C1C(=O)NCN=C1c1ccccc1 | > 339 | > 339 |  |

| Compound | EC50 [µM] | IC50 [µM] | outcome |
| --- | --- | --- | --- |
| NC(=O)CCC(NC(=O)c1ccccc1SC(=O)CCCC[n+]1ccccc1)C(N)=O (stereo not given) | 20.4 | > 200 |  |
| COCOc1ccc(C(=O)Oc2cccc3c2OC(C)(C)O3)c(OCOC)c1 | > 200 | 35.5 |  |
| COc1ccc(/C(=N\NC(=O)NN)C(c2ccc(OC)cc2)C2(O)C(=O)Nc3c(Cl)cc(Cl)cc32)cc1 (stereo not given) | > 9.55 | > 9.55 |  |
| COc1cc(/C=N/NC(=O)CC(=O)N(C(=O)c2ccc(Cl)cc2)c2ccc(C)cc2)ccc1O | > 195 | > 195 |  |
| CC1(c2ccc(F)cc2)C(C#N)C(=O)NC(=O)C1C#N (stereo not given) | > 912 | 170 |  |
| CC(=C/c1ccccc1)/C=C1/NC(=S)NC1=O | > 200 | > 200 |  |
| Cc1cccc(C(C)C)c1NC(=O)/C(Cc1c([N+](=O)[O-])cccc1[N+](=O)[O-])=N/NC(=O)CC#N | > 145 | > 145 |  |
| Cc1ccc([P+](Cc2ccccc2)(c2ccccc2)c2cccc3ccccc23)cc1 (stereo not given) | > 200 | 0.55 |  |
| COc1cc2cccc(N=Cc3cccc(OC)c3OC(C)C)c2cc1OC | > 13.2 | > 13.2 |  |
| C[N+](C)([O-])CCCNc1c2ccccc2nc2cccc([N+](=O)[O-])c12 | > 20 | 0.186 |  |
| CCCCN(CC)CC(C(C)=O)c1c(O)c2ccccc2oc1=O (stereo not given) | > 70.8 | > 70.8 |  |
| CC1(C)OCC2OC3([C@H](O)CCO)OC(C)(C)OC3C2O1 (stereo not given in full) | > 200 | > 200 |  |
| N#CC1C(=O)Nc2sc(C(=O)c3ccc(Br)cc3)c(N)c2C12CCCCC2 (stereo not given) | > 200 | 11.5 |  |
| COC(=O)C(Cc1ccccc1)NC(=O)C(CCCN=C(N)N)NC(=O)OCc1ccccc1 (stereo not given) | > 200 | > 200 |  |
| O=C1C=C(Nc2ccccc2)c2ccccc2C1=O | > 11 | > 11 |  |
| O=C1NCC2(CCN(Cc3ccccc3)CC2)N1 | > 200 | > 200 |  |
| COC(=O)C1=C2Nc3ccccc3C23CCN2CCC(=O)C[C@H](C1)[C@@H]23 (stereo not given in full) | > 107 | > 107 |  |
| Cc1ccc(/C=N/n2c(=O)[nH]c3ccccc3c2=O)cc1 | > 200 | > 200 |  |
| Cc1ccc(-c2n[nH]c(=O)[nH]2)cc1 | > 200 | > 200 |  |
| COC(=O)C12CCC(C)(C)CC1C1=CCC3C4(C)CC(O)C(O)C(C)(C(=O)OC)C4CCC3(C)C1(CO)CC2 (stereo not given) |  |  | inactive |
| CC(=O)/C(=C/c1cccc(F)c1)C(=O)c1ccccc1 | > 19.5 | > 19.5 |  |
| O=C(O)CSC(=S)NCCNC(=S)SCC(=O)O | > 95.5 | 72.4 |  |

| Compound | EC50 [µM] | IC50 [µM] | outcome |
| --- | --- | --- | --- |
| COC(=O)C(C)Oc1ccc(O)cc1 (stereo not given) | > 1260 | > 1260 |  |
| Cc1ccc(S(=O)(=O)N/N=C2\C=CC3(CC2)C(=O)N(I)c2ccccc23)cc1 (stereo not given) |  |  | inactive |
| CCN(CC)CCn1c2c3ccccc3ccc2c2oc(=O)c3ccccc3c21 | > 16.2 | > 16.2 |  |
| CC(=O)Nn1c(Cc2ccc(Cl)cc2)nn(C)c1=O |  |  | inactive |
| COc1ccc(C(OCC2OC(n3ccc(NC(=O)c4ccccc4)nc3=O)C(O)C2O)(c2ccccc2)c2ccccc2)cc1 (stereo not given) | > 200 | 9.33 |  |
| CN(C)CC1CCCC/C1=N\OC(=O)c1ccccc1 (stereo not given) |  |  | inactive |
| NC(=O)c1cc(NC(=O)c2ccc(C(=O)Nc3cc(C(N)=O)cc(C4=NCCN4)c3)cc2)cc(C2=NCCN2)c1 | > 100 | > 100 |  |
| O=C1NC2CCC(C2)C1c1ccccc1 (stereo not given) |  |  | inactive |
| CCOP(=O)(OCC)C(Cc1c[nH]c2ccccc12)C(=O)O (stereo not given) | > 200 | > 200 |  |
| N#CC1(C#N)C(C#N)(C#N)C12CCCCC2Cl (stereo not given) | > 20 | > 20 |  |
| O=C(O)c1cc(Sc2ccc([N+](=O)[O-])c(C(=O)O)c2)ccc1[N+](=O)[O-] | > 200 | > 200 |  |
| CCOC(=O)c1cc(-c2ccccc2)c(=O)c(OC)nc1-c1ccccc1 | > 200 | 74.1 |  |
| CCS(=O)c1c2cc(OC)ccc2nc2ccc(OC)cc12 (stereo not given) | > 200 | 1.38 |  |
| C=CCNC(=S)N/C=C(\c1ccccc1)S(=O)Cc1ccccc1 (stereo not given) | > 200 | > 200 |  |
| Nc1nccc(CCc2ccccc2)n1 | > 36.3 | > 36.3 |  |
| COC1/C=C/OC2(C)Oc3c(C)c(O)c4c(O)c(c(/C=N/OCCN5CCCCC5)c(O)c4c3C2=O)NC(=O)C(C)=C/C=C/C(C)C(O)C(C)C(O)C(C)C(OC(C)=O)C1C (stereo not given) | > 100 | 28.2 |  |
| O=CNc1ccccc1OCCOc1ccccc1NC=O | > 200 | > 200 |  |
| O=c1oc2ccccc2c(O)c1C(c1ccccc1)c1c(O)c2ccccc2oc1=O | > 200 | 33.1 |  |
| C=CCC(N(C)C(=O)[C@H](Cc1ccccc1)NC(=O)OCc1ccccc1)P(=O)(Oc1ccccc1)Oc1ccccc1 (stereo not given in full) | > 200 | 77.6 |  |
| CC(=O)O[C@H]1CC[C@H]2[C@@H]3CCC4=CC(=O)C=C[C@]4(O)[C@H]3CC[C@]12C | > 200 | 10.2 |  |
| C[C@H]1N(O)CC2OC(n3ccc(=O)[nH]c3=O)C(O)C21O (mixture of isomers) | > 200 | > 200 |  |
| C#CCN(N=O)C(=O)NC(CCCCNC(=O)OCc1ccccc1)C(=O)OCc1ccccc1 (stereo not given) | > 10.7 | > 10.7 |  |

| Compound | EC50 [µM] | IC50 [µM] | outcome |
| --- | --- | --- | --- |
| O=S(Nc1ccccc1)c1ccc(Cl)cc1 (stereo not given) | > 200 | 81.3 |  |
| CCCc1cc(=O)oc2c3c(c4c(c12)OC(C)(C)CC4)O[C@H](C)C(C)C3O (stereo not given in full) | > 200 | 25.1 |  |
| C=C1CC2(CCOc3ccc(Cl)cc32)OC1=O (stereo not given) | > 372 | 0.977 |  |
| Nc1nc2c(ncn2C2OC(CO)CC2F)c(=O)[nH]1 (stereo not given) |  |  | active |
| CC(=O)OCC1OC(n2c3c(c(-c4ccco4)c(C#N)c2=S)CCC3)C(OC(C)=O)C(OC(C)=O)C1OC(C)=O (stereo not given) | > 200 | 9.77 |  |
| Cc1ccc(S(=O)(=O)C(C#N)c2nc3ccccc3nc2N2CCOCC2)cc1 (stereo not given) | > 16.6 | > 16.6 |  |
| CCC[CH2][Sn]1([CH2]CCC)[O]N=C(c2ccccc2)C(c2ccccc2)[O]1 (stereo not given) | > 19.5 | 2.45 |  |
| Nc1[nH]n(-c2ccccc2)c(=O)c1/C=N/C(=S)NC1CCCCC1 | > 100 | > 100 |  |
| COc1ccc(/C=c2/sc3n(c2=O)C(c2ccccc2)C2(O)CCCCC2N=3)cc1 (stereo not given) | > 200 | > 200 |  |
| O=c1[nH]c2ccccc2c(=O)n1/N=C\c1ccc([N+](=O)[O-])cc1 | > 200 | > 200 |  |
| COc1ccc(N=NC(=O)NC(CC(C)C)C(=O)NCC(=O)O)cc1 (stereo not given) | > 200 | 3.72 |  |
| C1=CCCC=CCC1.C[PH+](C)C.C[PH+](C)C.C[PH+](C)C.[Cl-].[Ir] |  |  | inactive |
| CCCCC(C(=O)C(=O)Nc1ccccc1CC)C(=O)C(C)C (stereo not given) |  |  | inactive |
| CC(C)(C)[Si](C)(C)OCCC1CC2(S(=O)(=O)C3=CC=C=C=C3)ON1CC2S(=O)(=O)c1ccccc1 (stereo not given) | > 35.5 | > 35.5 |  |
| Cc1[nH]nc2c1C(=O)C=C(N(CCO)c1ccccc1)C2=O |  |  | inactive |
| CCOC(=O)c1ccc(-n2[nH]nc(C(N)=O)c2=O)cc1 | > 200 | > 200 |  |
| O=C(Nc1ccccc1)c1cc2ccc(O)c(O)c2cn1 | > 158 | 8.32 |  |
| Brc1ccc2[nH]c3nc(N/N=C/c4cccnc4)nnc3c2c1 | > 200 | > 200 |  |
| C[C@@H](CCO)OC1OC(COC(=O)C(C)(C)C)C(OC(=O)C(C)(C)C)C(OC(=O)C(C)(C)C)C1OC(=O)C(C)(C)C (stereo not given in full) | > 200 | 12 |  |
